Laboratory results taken from patent US20220098237A1, “COMPOUND, SYNTHESIS INTERMEDIATE, USE, PHARMACEUTICAL COMPOSITION AND NEUROMODULATORY THERAPEUTIC METHOD” (Remer Consultores Assessoria Empresarial Ltda, priority 2017, published 2022).
Where “and” joins values, the source holds several entries; their conditions need not be identical. Identical values can stand only once. Entries after “also recorded” stand apart in the source; their conditions may differ. Ends that are not written are not given here.

Tests used:
[1] = tested on: pain threshold; experiment: Pain threshold model, pressure apparatus on right paw; assay type: in vivo, rats; conditions: oral, 0.5 to 0.25 mg/kg, individual animals
Protocol: The compounds of the present invention have also been tested as analgesics or neuropathic pain modulators. To that end, the compounds PVNFKF, PVNFK, VNFKF, SEQ ID No. 1 were tested in the pain threshold model. The pain threshold was measured using a pressure apparatus (Ugo Basile, Italy), essentially as described (Randall and Selitto, 1957). Briefly, a force of increasing magnitude (16 g/s) was applied to the back of the right paw of rats. When animals react by kicking, the force in grams required to induce this response is the threshold of pain. Antinoniceptive activity was expressed as the increase in pain threshold compared to control animals.
The compounds of the invention were administered orally to the animals at doses of 0.5 to 0.25 mg/kg and saline was used as a control.

[2] = tested on: pilocarpine model; experiment: Pilocarpine model, oral pre-treatment (salivation, first signal, seizure, death/survival); assay type: in vivo, Mus musculus; parameters: time of occurrence of the first seizure: unit not given here; conditions: for time of occurrence of the first salivation: Table 1; for time of occurrence of the first salivation / time of occurrence of the first signal / time of occurrence of the first seizure / time of death occurrence: oral, 10 minutes prior to pilocarpine 320 mg/kg i.p., individual animals; for time of occurrence of the first signal: Table 2; for time of occurrence of the first seizure: Table 3; for time of death occurrence: Table 4; for neuroprotection, survival/death profile after 24 hours: FIG. 7, 600 μg/kg, n=5 per group, compared with SEQ ID No. 1
Protocol: In some examples, the neuromodulatory/neuroprotective/anticonvulsive effects of the composition of the invention have been evaluated in vivo by oral administration to animals. The pharmaceutical composition of the invention was administered to mammals (Mus musculus or mouse) with an oral dose of treatment with different embodiments of the compound of the invention, compared to other compounds or to saline control. In these experiments, the test compounds were administered orally 10 minutes prior to (intraperitoneal) administration of pilocarpine. Pilocarpine hydrochloride (320 mg/kg, Merck), dissolved in 0.9% sterile saline, was given intraperitoneally for induction of SE (status epileticus) (Turski et al., 1983). In the Turski model, the neurotoxic effects begin about 15-25 minutes after the injection of Pilo, with the occurrence of motor and limbic seizures, the animals evolving to a state of continuous (clonic) seizures that characterize SE Sanabria and Cavalheiro, 2000).
In this embodiment, the anticonvulsive effect of the composition of the invention prepared according to Example 2 was evaluated by prior administration of the inventive composition and subsequent administration of pilocarpine to animals. FIG. 4 presents the results of the pilocarpine model, indicating the time for the first salivation with the administration of control, cannabidiol (30 mg/kg), the compound of the invention R1-N-AA1-K-AA2-R2, in which embodiment is the tetrapeptide of SEQ ID No. 1 (500 μg/kg).
In this embodiment, the neuromodulatory effect of the composition of the invention prepared according to Example 2 was evaluated by prior administration of the inventive composition and subsequent administration of pilocarpine to animals. Other test compounds were also evaluated as described below. Administration of pilocarpine leads to severe brain injury, neurotoxicity and usually culminates in the death of the animals. This substance was used in the experiments described below but its harmful neuronal/encephalic effects were inhibited by the prior administration of the composition of the present invention: the vast majority of the animals subjected to these experiments had no symptoms related to brain lesions and survived without apparent damage, in contrast to groups of animals treated with other known substances.
The composition of the invention was prepared according to Example 2 with due concentration correction, for comparison of the effects of SEQ ID No. 1, SEQ ID No. 7 and NFK, such compounds having been previously administered to the animal groups.
In this embodiment, the anticonvulsant effect of different embodiments of the compound of the invention with the structure represented by SEQ ID No. 1, SEQ ID No. 7, NFK, FKF, FKL, as well as the NF, FK, KF and KL dipeptides were evaluated in the pilocarpine model.

[3] = molecular target: CB1 receptor in Striatum membranes; experiment: ELISA on Striatum membranes: CB1 recognition by conformation-sensitive anti-CB1 antibody after incubation with 1 µM ligand; assay 1
Sequence of CB1 receptor in Striatum membranes (P21554 whole entry): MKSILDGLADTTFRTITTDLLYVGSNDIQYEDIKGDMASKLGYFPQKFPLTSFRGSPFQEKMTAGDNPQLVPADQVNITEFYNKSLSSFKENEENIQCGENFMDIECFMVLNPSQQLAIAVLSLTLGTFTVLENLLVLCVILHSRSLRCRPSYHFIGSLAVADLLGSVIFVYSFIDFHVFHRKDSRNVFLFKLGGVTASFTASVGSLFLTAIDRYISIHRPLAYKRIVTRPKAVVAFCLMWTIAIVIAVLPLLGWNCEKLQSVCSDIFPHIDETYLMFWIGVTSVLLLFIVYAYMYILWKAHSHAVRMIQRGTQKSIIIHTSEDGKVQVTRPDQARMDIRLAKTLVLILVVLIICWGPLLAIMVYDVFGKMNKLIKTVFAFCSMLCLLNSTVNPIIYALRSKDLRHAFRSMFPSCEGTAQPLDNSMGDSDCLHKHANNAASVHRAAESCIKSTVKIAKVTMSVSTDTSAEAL

[4] = molecular target: CB1 receptor in Striatum membranes; experiment: ELISA on Striatum membranes: CB1 recognition by conformation-sensitive anti-CB1 antibody after incubation with 1 µM ligand; assay 2
[5] = molecular target: CB1 receptor in Striatum membranes; experiment: ELISA on Striatum membranes: CB1 recognition by conformation-sensitive anti-CB1 antibody after incubation with 1 µM ligand; assay 3
[6] = molecular target: CB1 receptor in Striatum membranes; experiment: ELISA on Striatum membranes: CB1 recognition by conformation-sensitive anti-CB1 antibody after incubation with 1 µM ligand; assay 4
[7] = molecular target: CB1 receptor in Striatum membranes; experiment: ELISA on Striatum membranes: CB1 recognition by conformation-sensitive anti-CB1 antibody after incubation with 1 µM ligand; assay 5

Molecule: VNFKF
- pain threshold, force ([1]; After 3 h): 85 grams and 40 grams and 35 grams and 50 grams (3×)
- pain threshold, force ([1]; Immediate): 70 grams (2×) and 65 grams (2×) and 75 grams (2×)

Molecule: FKL
- time of occurrence of the first salivation [2]: 0.333 min and 1.6 min and 0.2 min and 0.633 min and 1.5 min
- time of occurrence of the first signal [2]: 9.17 min and 5.67 min and 9.5 min and 8.5 min and 4.5 min
- time of occurrence of the first seizure [2]: 5.3 and 6.35 and 4.83 and 8.82
- time of death occurrence [2]: 14.53 min and 11.7 min and 10.92 min

Molecule: VDHp (peptide)
- % binding to the CB1 receptor in relation to control [3]: 116 % of control
- % binding to the CB1 receptor in relation to control [4]: 114 % of control
- % binding to the CB1 receptor in relation to control [5]: 131 % of control
- % binding to the CB1 receptor in relation to control [6]: 129 % of control
- % binding to the CB1 receptor in relation to control [7]: 113 % of control

Molecule: PVNFKF [reference compound]
- pain threshold, force ([1]; After 3 h): 45 grams (2×) and 30 grams and 55 grams (2×) and 65 grams
- pain threshold, force ([1]; Immediate): 75 grams (2×) and 65 grams and 60 grams and 70 grams and 80 grams

Molecule: NFK
- neuroprotection, survival/death profile after 24 hours [2]: equivalent to those obtained with SEQ ID No. 1
- occurrence of first salivation (in words) ([2]; FIG. 8): inhibited or delayed the occurrence of first salivation
- time of occurrence of the first salivation [2]: 1.38 min and 0.75 min and 0.42 min and 0.98 min
- time of occurrence of the first signal [2]: 6.28 min and 8.92 min and 4.83 min and 7.82 min
- time of occurrence of the first seizure [2]: 13.38 and 11.33 and 9.67 and 8 and 9.93
- time of death occurrence [2]: 16.83 min and 13.53 min and 11.7 min and 10.92 min and 10.87 min

Molecule: SEQ ID No. 7: tetrapeptide of SEQ ID No. 7, embodiment of R1-N-AA1-K-AA2-R2; sequence not printed in the text (NFKL; Synthesized in laboratory)
- neuroprotection, survival/death profile after 24 hours [2]: even better than those obtained with SEQ ID No. 1
- time of occurrence of the first salivation [2]: 1.25 min (2×) and 1.183 min and 1.067 min and 2.45 min
- time of occurrence of the first signal [2]: 10.25 min and 9.317 min and 10.17 min (2×) and 3.83 min
- time of occurrence of the first seizure [2]: 15.33 (2×) and 18.4 and 30 and 27.3
- time of death occurrence [2]: 26.63 min and 25.13 min and 13.5 min

Molecule: FKF
- time of occurrence of the first salivation [2]: 0.38 min and 0.95 min and 0.50 min and 1.50 min
- time of occurrence of the first signal [2]: 5.3 min and 6.35 min and 8.33 min and 8.82 min
- time of occurrence of the first seizure [2]: 10.25 and 6.28 and 8.92 and 3.83 and 7.82
- time of death occurrence [2]: 12.9 min and 13.17 min and 20.67 min and 16.67 min and 13.5 min

Molecule: C=C(C)[C@@H]1CCC(C)=C[C@H]1c1c(O)cc(CCCCC)cc1O [cannabidiol, reference compound]
- time for first salivation vs control (significance) ([2]; FIG. 4, cannabidiol 30 mg/kg, SEQ ID No. 1 500 μg/kg): does not present statistical significance
- prostration and nasal bleeding ([2]; SEQ ID No. 1 500 μg/kg, cannabidiol 30 mg/kg): both prostration and the nasal bleeding was observed; also recorded: both prostration and bleeding were observed

Molecule: RVDHp (peptide)
- % binding to the CB1 receptor in relation to control [3]: 103 % of control
- % binding to the CB1 receptor in relation to control [4]: 112 % of control
- % binding to the CB1 receptor in relation to control [5]: 111 % of control
- % binding to the CB1 receptor in relation to control [6]: 115 % of control
- % binding to the CB1 receptor in relation to control [7]: 105 % of control

Molecule: PVNFK [reference compound]
- pain threshold, force ([1]; After 3 h): 55 grams (2×) and 45 grams and 40 grams (2×) and 60 grams
- pain threshold, force ([1]; Immediate): 70 grams and 75 grams (3×) and 65 grams and 60 grams

B1: SEQ ID No. 1-Biotin (peptide)
peptide: NFKF
modifications: also: biotin, position not given here
- % binding to the CB1 receptor in relation to control [3]: 89.2 % of control
- % binding to the CB1 receptor in relation to control [4]: 85.5 % of control
- % binding to the CB1 receptor in relation to control [5]: 83.3 % of control
- % binding to the CB1 receptor in relation to control [6]: 84.8 % of control
- % binding to the CB1 receptor in relation to control [7]: 97.5 % of control

B2: hemopressin (peptide)
peptide: PVNFKFLSH
- % binding to the CB1 receptor in relation to control [3]: 91.3 % of control
- % binding to the CB1 receptor in relation to control [4]: 92.7 % of control
- % binding to the CB1 receptor in relation to control [5]: 97 % of control
- % binding to the CB1 receptor in relation to control [6]: 90.2 % of control
- % binding to the CB1 receptor in relation to control [7]: 73.5 % of control
